From US7105516B2, “Compounds for the treatment of premature ejaculation” (Bristol-Myers Squibb Company, priority 2002, dated 2006)
Read-outs that look alike come from different tables or passages of the source.

How the values were obtained:
[1] = biological target: T1, human serotonin transporters (Homo sapiens, UniProt P31645); experiment: Serotonin Transporter Binding Assay ([3H]-citalopram displacement, HEK-hSERT cell membranes); conditions: 1 nM [3H]-citalopram, 1 hr at 25° C.
T1 construct: expressed in transfected cells; membrane homogenates
Description: HEK-293 cells that stably express human serotonin transporters (HEK-hSERT cells) were grown at 37° C. in 5% CO2 as a monolayer in medium consisting of EMEM supplemented with 10% fetal bovine serum and G418 sulfate (500 μg/mL). […] Cells were transferred from plates to polypropylene tubes (16×100 mm), centrifuged at 1,200×g for 5 min and were frozen at −80° C. until assay. Following centrifugation, pellets were resuspended by homogenization in buffer consisting of 50 mM Tris (pH 7.7 at 25° C.), 120 mM NaCl and 5 mM KCl and then centrifuged at 32,000×g for 10 min. Following centrifugation, supernatants were discarded and pellets were resuspended in buffer consisting of 50 mM Tris (pH 7.4 at 25° C.), 150 mM NaCl and 5 mM KCl. Membrane homogenates (200 μl/plate) were incubated with 1 nM [^3H]-citalopram (specific activity=85 Ci/mMol) and increasing concentrations of test compounds for 1 hr at 25° C. in a total volume of 250 μl. The assay buffer consisted of 50 mM Tris (pH 7.4 at 25° C.), 120 mM NaCl and 5 mM KCl (pH 7.4 with conc. HCl). Plates were incubated for 1 hr at 25° C., then filtered through 0.5% PEI treated Whatman GF/B filters using a Brandel cell harvester. Filters were washed three times with 3 mL of ice-cold tris wash buffer. Non-specific binding was defined with 10 μM fluoxetine. Amount of radioligand bound in the presence and absence of competitor was analyzed by plotting (−)log drug concentration versus the amount of radioligand specifically bound. The midpoint of the displacement curve (IC50, nM), signifies the potency.

[2] = biological target: T2, human norepinephrine transporters (Homo sapiens, UniProt P23975); experiment: Norepinephrine Transporter Binding Assay ([3H]-nisoxetine displacement, hNET cell membranes); conditions: 2.7 nM [3H]-nisoxetine, 1 hr at 4° C., read-out: NE reuptake binding Ki
T2 construct: the text also calls them 'HEK-hNET cells'); membrane homogenates
Description: MDCK cells that stably express human norepinephrine transporters (HEK-hNET cells) were supplied by Receptor Biology, Inc. Pellets were resuspended by homogenization in buffer consisting of 50 mM Tris (pH 7.4 at 25° C.), 120 mM NaCl and 5 mM KCl. Membrane homogenates (200 μl/well, 8 ug protein) were incubated with 2.7 nM [^3H]-nisoxetine (specific activity=80 Ci/mMol) and increasing concentrations of test compounds for 1 hr at 4° C. in a total volume of 250 μl. The assay buffer consisted of 50 mM Tris (pH 7.4 at 25° C.), 120 mM NaCl and 5 mM KCl (pH 7.4 with conc. HCl). Plates were incubated for 1 hr at 4° C., then filtered through 0.5% PEI treated Whatman GF/B filters using a Brandel cell harvester. Filters were washed three times with 3 mL of ice-cold tris wash buffer. Non-specific binding was defined with 10 μM desipramine. Amount of radioligand bound in the presence and absence of competitor was analyzed by plotting (−)log drug concentration versus the amount of radioligand specifically bound. The midpoint of the displacement curve (IC50, nM), signifies the potency. Ki values were calculated using the method of Cheng and Prusoff (1973).

[3] = read-out: 5-HT reuptake binding Ki

T1 sequence (P31645 whole entry): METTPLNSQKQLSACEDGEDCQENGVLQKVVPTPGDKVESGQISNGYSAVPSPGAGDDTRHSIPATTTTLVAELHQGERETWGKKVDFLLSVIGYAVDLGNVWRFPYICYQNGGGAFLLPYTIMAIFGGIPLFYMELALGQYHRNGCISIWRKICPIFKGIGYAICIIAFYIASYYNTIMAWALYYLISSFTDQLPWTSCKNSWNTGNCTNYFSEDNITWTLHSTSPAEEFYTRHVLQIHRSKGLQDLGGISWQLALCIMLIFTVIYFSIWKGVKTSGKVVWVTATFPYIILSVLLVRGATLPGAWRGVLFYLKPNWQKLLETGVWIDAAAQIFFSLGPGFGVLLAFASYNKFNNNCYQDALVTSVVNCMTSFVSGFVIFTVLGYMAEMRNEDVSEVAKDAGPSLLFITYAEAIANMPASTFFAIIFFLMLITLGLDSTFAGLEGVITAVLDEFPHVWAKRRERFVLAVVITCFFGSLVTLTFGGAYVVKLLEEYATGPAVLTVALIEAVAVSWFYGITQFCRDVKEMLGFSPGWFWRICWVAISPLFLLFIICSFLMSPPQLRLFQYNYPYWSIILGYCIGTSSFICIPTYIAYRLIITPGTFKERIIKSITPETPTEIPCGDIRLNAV
T2 sequence (P23975 whole entry): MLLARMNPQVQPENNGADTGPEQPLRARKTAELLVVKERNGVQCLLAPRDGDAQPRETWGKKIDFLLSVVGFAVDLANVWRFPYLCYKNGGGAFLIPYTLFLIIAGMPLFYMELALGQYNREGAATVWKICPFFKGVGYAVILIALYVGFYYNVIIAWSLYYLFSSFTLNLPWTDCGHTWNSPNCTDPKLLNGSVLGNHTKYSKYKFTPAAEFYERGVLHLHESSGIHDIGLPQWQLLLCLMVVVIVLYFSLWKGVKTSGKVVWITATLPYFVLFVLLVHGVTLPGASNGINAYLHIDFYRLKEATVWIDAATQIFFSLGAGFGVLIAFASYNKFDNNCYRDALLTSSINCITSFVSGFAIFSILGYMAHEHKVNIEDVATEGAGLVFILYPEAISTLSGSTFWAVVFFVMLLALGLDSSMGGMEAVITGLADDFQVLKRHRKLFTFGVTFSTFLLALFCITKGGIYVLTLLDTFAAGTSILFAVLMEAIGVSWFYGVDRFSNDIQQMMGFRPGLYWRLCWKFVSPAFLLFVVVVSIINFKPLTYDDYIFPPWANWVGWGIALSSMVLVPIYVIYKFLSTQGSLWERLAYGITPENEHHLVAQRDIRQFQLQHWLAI

Row | Structure (SMILES) | Ki [1, 3] | Ki [2] | Ki ([1]; 5-HT reuptake binding Ki)
1 | CN(C)C1CCCC1Cc1c[nH]c2ccc(C#N)cc12 (mixture of isomers) [Example 54, 3-(2-Dimethylamino-cyclopentylmethyl)-1H-indole-5-carbonitrile] | 1 to 10 nM |  | 
2 | CN(C)C[C@H]1CCC[C@@H]1c1c[nH]c2ccc(C#N)cc12 (racemic) [Example 25, Trans-3-(2-dimethylaminomethyl-cyclopentyl)-1H-indole-5-carbonitrile] |  | > 1000 nM | < 1 nM
3 | CCC([C@H]1CCC[C@@H]1c1c[nH]c2ccc(C#N)cc12)N(C)C (mixture of isomers) [Example 50, (+/−) trans-3-[2-(1-dimethylaminopropyl)cyclopentyl]-1H-indole-5-carbonitrile,diastereomer A] | 10 to 100 nM |  | 
4 | CCC([C@H]1CCC[C@@H]1c1c[nH]c2ccc(C#N)cc12)N(C)C (mixture of isomers) [Example 51, (+/−) trans-3-[2-(1-dimethylaminopropyl)cyclopentyl]-1H-indole-5-carbonitrile,diastereomer B] | 100 to 500 nM |  | 
5 | CNC[C@H]1CCC[C@@H]1c1c[nH]c2ccc(C#N)cc12 (relative stereo) [Example 26, Trans-3-(2-methylaminomethyl-cyclopentyl)-1H-indole-5-carbonitrile] | 1 to 10 nM | > 1000 nM | 
6 | CCNC[C@H]1CCC[C@@H]1c1c[nH]c2ccc(C#N)cc12 (relative stereo) [Example 27, Trans-3-(2-ethylaminomethyl-cyclopentyl)-1H-indole-5-carbonitrile] |  | > 1000 nM | 10 to 100 nM
7 | CCN(CC)C[C@H]1CCC[C@@H]1c1c[nH]c2ccc(C#N)cc12 (relative stereo) [Example 28, Trans-3-(2-diethylaminomethyl-cyclopentyl)-1H-indole-5-carbonitrile] |  | > 1000 nM | 100 to 500 nM
8 | CCN(C)C[C@H]1CCC[C@@H]1c1c[nH]c2ccc(C#N)cc12 (relative stereo) [Example 29, Trans-3-{2-[(ethyl-methyl-amino)-methyl]-cyclopentyl}-1H-indole-5-carbonitrile] |  | > 1000 nM | 1 to 10 nM
9 | N#Cc1ccc2[nH]cc([C@H]3CCC[C@@H]3CN3CCCC3)c2c1 (relative stereo) [Example 30, Trans-3-(pyrrolidin-1-ylmethyl-cyclopentyl)-1H-indole-5-carbonitrile] |  | > 1000 nM | 1 to 10 nM
10 | CN(Cc1ccccc1)C[C@H]1CCC[C@@H]1c1c[nH]c2ccc(C#N)cc12 (relative stereo) [Example 31, Trans-3-{2-[(benzyl-methyl-amino)-methyl]-cyclopentyl}-1H-indole-5-carbonitrile] | 10 to 100 nM | > 1000 nM | 
11 | CN(C)C[C@H]1CCC[C@@H]1c1cn(C)c2ccc(C#N)cc12 (relative stereo) [Example 32, Trans-3-(2-dimethylaminomethyl-cyclopentyl)-1-methyl-1H-indole-5-carbonitrile] |  | > 1000 nM | 1 to 10 nM
12 | CCn1cc([C@H]2CCC[C@@H]2CN(C)C)c2cc(C#N)ccc21 (relative stereo) [Example 33, Trans-3-(2-dimethylaminomethyl-cyclopentyl)-1-ethyl-1H-indole-5-carbonitrile] | 1 to 10 nM | > 1000 nM | 
13 | CN(C)C[C@H]1CCC[C@@H]1c1ccc2[nH]cc(C#N)c2c1 (relative stereo) [Example 34, Trans-5-(2-dimethylaminomethyl-cyclopentyl)-1H-indole-3-carbonitrile] | 1 to 10 nM | > 1000 nM | 
14 | CNC[C@H]1CCC[C@@H]1c1ccc2[nH]cc(C#N)c2c1 (relative stereo) [Example 35, Trans-5-(2-methylaminomethyl-cyclopentyl)-1H-indole-3-carbonitrile] | 1 to 10 nM | > 1000 nM | 
15 | N#Cc1c[nH]c2ccc([C@H]3CCC[C@@H]3CN3CCCC3)cc12 (relative stereo) [Example 36, Trans-5-(2-pyrrolidin-1-ylmethyl-cyclopentyl)-1H-indole-3-carbonitrile] | 100 to 500 nM | > 1000 nM | 
16 | CCNC[C@H]1CCC[C@@H]1c1ccc2[nH]cc(C#N)c2c1 (relative stereo) [Example 37, Trans-5-(ethylaminomethyl-cyclopentyl)-1H-indole-3-carbonitrile] | 100 to 500 nM | > 1000 nM | 
17 | CCN(C)C[C@H]1CCC[C@@H]1c1ccc2[nH]cc(C#N)c2c1 (relative stereo) [Example 38, Trans-5-{2-[(ethyl-methyl-amino)-methyl]-cyclopentyl}-1H-indole-3-carbonitrile] | 100 to 500 nM | > 1000 nM | 
18 | CCN(CC)C[C@H]1CCC[C@@H]1c1ccc2[nH]cc(C#N)c2c1 (relative stereo) [Example 39, Trans-5-(diethylaminomethyl-cyclopentyl)-1H-indole-3-carbonitrile] | 100 to 500 nM | > 1000 nM | 
19 | CN(Cc1ccccc1)C[C@H]1CCC[C@@H]1c1ccc2[nH]cc(C#N)c2c1 (relative stereo) [Example 40, Trans-5-{2-[(benzyl-methyl-amino)-methyl]-cyclopentyl}-1H-indole-3-carbonitrile] | 10 to 100 nM | > 1000 nM | 
20 | CN(C)C[C@@H]1CCC[C@@H]1c1ccc2[nH]cc(C#N)c2c1 (relative stereo) [Example 43, Cis-5-(dimethylaminomethyl-cyclopentyl)-1H-indole-3-carbonitrile] | 1 to 10 nM |  | 
21 | CC([C@H]1CCCC1c1c[nH]c2ccc(C#N)cc12)N(C)C (single isomer, unassigned) [Example 48] | 10 to 100 nM |  | 
22 | CC([C@H]1CCCC1c1c[nH]c2ccc(C#N)cc12)N(C)C (single isomer, unassigned) [Example 49] | < 1 nM |  | 
23 | CC([C@H]1CCCC1c1c[nH]c2ccc(C#N)cc12)N(C)C (single isomer, unassigned; diastereomer b) [Example 47, (+/−) trans-3-[2-(1-dimethylaminoethyl)cyclopentyl]-1H-indole-5-carbonitrile,diastereomer B] | 1 to 10 nM |  | 
24 | CN(C)C[C@H]1CCC[C@@H]1c1c[nH]c2ccc(I)cc12 [Example 52, (1S,2S)-[2-(5-iodo-1H-indol-3-yl)-cyclopentylmethyl]-dimethylamine] | 10 to 100 nM |  | 
25 | CNC1CCCC1Cc1c[nH]c2ccc(C#N)cc12 (stereo not shown) [Example 55, 3-(2-Methylamino-cyclopentylmethyl)-1H-indole-5-carbonitrile] | 1 to 10 nM |  | 
26 | CCNC1CCCC1Cc1c[nH]c2ccc(C#N)cc12 (stereo not shown) [Example 56, 3-(2-Ethylamino-cyclopentylmethyl)-1H-indole-5-carbonitrile] | 1 to 10 nM |  | 
27 | CCN(CC)C1CCCC1Cc1c[nH]c2ccc(C#N)cc12 (stereo not shown) [Example 57, 3-(2-Diethylamino-cyclopentylmethyl)-1H-indole-5-carbonitrile] | 10 to 100 nM |  | 
28 | CCN(C)C1CCCC1Cc1c[nH]c2ccc(C#N)cc12 (stereo not shown) [Example 58, 3-[2-(Ethyl-methyl-amino)-cyclopentylmethyl]-1H-indole-5-carbonitrile] | 1 to 10 nM |  | 
29 | N#Cc1ccc2[nH]cc(CC3CCCC3N3CCCC3)c2c1 (stereo not shown) [Example 59, 3-(2-Pyrrolidin-1-yl-cyclopentylmethyl)-1H-indole-5-carbonitrile] | 1 to 10 nM |  | 
30 | CN(Cc1ccccc1)C1CCCC1Cc1c[nH]c2ccc(C#N)cc12 (stereo not shown) [Example 60, 3-[2-(Benzyl-methyl-amino)-cyclopentylmethyl]-1H-indole-5-carbonitrile] | 10 to 100 nM |  | 
